Experiment [1] addresses Serine/threonine-protein kinase N2 (Homo sapiens, UniProt Q16513). The experiment can be described thus: Selectivity interaction (Millipore kinase profiler) EUB0000124b PKN2. As to conditions: at 10 µM.
Experiment [2] addresses Dual specificity tyrosine-phosphorylation-regulated kinase 1B (Homo sapiens, UniProt Q9Y463). The experiment can be described thus: Selectivity interaction (Enzymatic assay (Eurofins)) EUB0001049a DYRK1B.
Experiment [3] concerns the target Serine/threonine-protein kinase PAK 1 (Homo sapiens) (UniProt Q13153). The experiment can be described thus: Selectivity interaction (KinomeScan (DiscoverX)) EUB0000666a PAK1. To be noted: at 10 µM.
Experiment [4] deals with Tyrosine-protein kinase Fes/Fps (Homo sapiens) (UniProt P07332). The experiment can be described thus: Selectivity interaction (SelectScreen profiling (Invitrogen)) EUB0000607a FES. To be noted: at 2 µM.
Chain of Tyrosine-protein kinase Fes/Fps (Homo sapiens) (P07332 whole entry): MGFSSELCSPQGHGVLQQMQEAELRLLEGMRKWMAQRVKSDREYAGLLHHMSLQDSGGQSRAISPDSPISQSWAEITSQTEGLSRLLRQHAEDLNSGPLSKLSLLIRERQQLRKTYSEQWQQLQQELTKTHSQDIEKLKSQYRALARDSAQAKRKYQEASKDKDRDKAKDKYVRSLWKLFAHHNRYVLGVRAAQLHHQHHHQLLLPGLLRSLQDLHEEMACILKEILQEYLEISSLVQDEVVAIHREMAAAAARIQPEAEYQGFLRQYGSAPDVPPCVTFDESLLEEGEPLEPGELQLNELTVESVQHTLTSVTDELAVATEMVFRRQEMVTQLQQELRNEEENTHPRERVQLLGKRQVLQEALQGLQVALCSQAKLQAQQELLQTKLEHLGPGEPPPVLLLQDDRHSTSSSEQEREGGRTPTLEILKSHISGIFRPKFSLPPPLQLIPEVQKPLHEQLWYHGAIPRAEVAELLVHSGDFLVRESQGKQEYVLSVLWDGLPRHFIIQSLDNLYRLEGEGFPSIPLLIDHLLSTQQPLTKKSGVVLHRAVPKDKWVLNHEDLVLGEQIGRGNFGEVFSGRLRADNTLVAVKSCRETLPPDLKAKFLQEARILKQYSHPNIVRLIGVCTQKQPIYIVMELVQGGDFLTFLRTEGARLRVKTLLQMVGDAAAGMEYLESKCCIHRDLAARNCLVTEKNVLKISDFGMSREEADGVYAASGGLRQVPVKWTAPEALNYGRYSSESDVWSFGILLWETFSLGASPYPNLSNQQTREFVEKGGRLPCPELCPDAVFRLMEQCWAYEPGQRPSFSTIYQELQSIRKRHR
Experiment [5] addresses Serine/threonine-protein kinase NIM1 (Homo sapiens, UniProt Q8IY84). In words: Selectivity interaction (KinomeScan (DiscoverX)) EUB0000607a NIM1K. To be noted: at 10 µM.
In experiment [6] the target is T1, Muscle, skeletal receptor tyrosine-protein kinase (Homo sapiens) (UniProt O15146).
T1 sequence (whole entry): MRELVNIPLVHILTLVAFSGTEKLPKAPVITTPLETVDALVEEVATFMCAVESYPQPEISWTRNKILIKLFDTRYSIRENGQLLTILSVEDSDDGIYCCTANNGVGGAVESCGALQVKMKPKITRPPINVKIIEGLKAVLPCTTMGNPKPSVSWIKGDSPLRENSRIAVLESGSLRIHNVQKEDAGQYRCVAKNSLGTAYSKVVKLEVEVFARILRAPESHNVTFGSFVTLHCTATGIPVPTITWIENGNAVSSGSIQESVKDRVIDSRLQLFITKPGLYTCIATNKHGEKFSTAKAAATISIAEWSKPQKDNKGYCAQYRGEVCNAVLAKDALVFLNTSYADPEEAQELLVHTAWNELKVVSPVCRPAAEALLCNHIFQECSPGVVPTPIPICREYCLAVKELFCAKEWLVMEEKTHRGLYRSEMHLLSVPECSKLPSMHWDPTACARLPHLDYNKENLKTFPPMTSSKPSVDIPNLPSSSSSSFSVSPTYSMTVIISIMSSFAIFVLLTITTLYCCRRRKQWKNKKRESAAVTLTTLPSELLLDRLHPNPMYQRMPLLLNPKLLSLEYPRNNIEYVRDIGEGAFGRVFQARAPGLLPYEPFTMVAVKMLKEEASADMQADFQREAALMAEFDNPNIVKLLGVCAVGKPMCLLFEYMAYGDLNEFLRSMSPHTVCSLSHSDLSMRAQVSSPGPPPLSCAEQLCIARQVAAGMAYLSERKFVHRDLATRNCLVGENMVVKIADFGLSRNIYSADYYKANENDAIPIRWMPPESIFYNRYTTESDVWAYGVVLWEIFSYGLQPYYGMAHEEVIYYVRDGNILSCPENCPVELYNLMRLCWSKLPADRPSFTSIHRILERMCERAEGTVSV
In words: Selectivity interaction (Kinase panel (Invitrogen)) EUB0000639a MUSK. As to conditions: at 200 nM.

The target in experiment [7] is T2, Receptor-type tyrosine-protein kinase FLT3 (Homo sapiens, UniProt P36888).
T2 sequence (P36888 whole entry): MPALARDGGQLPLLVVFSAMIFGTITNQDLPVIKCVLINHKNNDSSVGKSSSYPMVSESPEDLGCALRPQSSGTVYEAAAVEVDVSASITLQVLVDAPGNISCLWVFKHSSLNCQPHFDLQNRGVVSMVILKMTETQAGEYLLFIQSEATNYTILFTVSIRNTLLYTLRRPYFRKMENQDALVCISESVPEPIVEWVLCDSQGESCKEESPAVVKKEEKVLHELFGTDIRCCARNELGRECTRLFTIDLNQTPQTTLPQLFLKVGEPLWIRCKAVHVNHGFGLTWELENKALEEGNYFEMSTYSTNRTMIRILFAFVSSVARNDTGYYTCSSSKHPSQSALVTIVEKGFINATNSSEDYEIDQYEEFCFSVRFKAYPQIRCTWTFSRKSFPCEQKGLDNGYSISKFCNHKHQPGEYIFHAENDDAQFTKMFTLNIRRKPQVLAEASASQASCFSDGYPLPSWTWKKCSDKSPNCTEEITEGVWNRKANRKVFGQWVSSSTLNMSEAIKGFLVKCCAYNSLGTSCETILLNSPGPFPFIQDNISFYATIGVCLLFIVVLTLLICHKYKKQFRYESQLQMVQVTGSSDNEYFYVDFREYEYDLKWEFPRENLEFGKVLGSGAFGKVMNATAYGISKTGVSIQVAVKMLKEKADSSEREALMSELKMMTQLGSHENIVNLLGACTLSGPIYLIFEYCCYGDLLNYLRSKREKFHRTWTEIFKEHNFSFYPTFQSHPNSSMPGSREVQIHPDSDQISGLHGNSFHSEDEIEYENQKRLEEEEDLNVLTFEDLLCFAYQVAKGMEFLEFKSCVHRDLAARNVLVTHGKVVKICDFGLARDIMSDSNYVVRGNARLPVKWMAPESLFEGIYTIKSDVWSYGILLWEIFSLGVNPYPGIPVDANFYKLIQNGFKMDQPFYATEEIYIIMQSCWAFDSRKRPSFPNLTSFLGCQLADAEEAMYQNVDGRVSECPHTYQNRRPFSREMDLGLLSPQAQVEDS

The target of experiment [8] is Insulin-like growth factor 1 receptor (Homo sapiens, UniProt P08069). In words: Selectivity interaction (KinomeScan (DiscoverX)) EUB0000595a IGF1R. To be noted: at 10 µM.
Chain of Insulin-like growth factor 1 receptor (P08069 31-736 limits assumed): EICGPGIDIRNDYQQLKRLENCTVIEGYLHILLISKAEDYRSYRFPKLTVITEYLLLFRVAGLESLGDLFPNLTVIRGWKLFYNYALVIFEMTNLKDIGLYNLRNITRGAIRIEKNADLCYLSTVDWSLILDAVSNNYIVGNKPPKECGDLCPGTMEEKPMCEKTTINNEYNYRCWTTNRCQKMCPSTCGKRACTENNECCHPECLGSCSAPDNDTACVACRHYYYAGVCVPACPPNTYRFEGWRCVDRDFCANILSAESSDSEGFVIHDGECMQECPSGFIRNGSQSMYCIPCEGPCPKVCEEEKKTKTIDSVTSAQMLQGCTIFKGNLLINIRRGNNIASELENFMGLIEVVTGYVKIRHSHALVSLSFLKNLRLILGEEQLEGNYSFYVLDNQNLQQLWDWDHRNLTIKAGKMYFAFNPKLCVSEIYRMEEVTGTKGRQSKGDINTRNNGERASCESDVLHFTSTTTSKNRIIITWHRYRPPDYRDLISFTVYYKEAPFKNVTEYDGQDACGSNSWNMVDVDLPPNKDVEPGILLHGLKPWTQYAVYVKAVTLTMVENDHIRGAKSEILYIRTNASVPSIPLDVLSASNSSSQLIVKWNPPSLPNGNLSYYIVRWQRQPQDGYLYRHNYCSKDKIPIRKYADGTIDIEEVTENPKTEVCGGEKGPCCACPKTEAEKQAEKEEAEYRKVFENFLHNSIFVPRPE
Chain of Insulin-like growth factor 1 receptor (P08069 741-1367 limits assumed): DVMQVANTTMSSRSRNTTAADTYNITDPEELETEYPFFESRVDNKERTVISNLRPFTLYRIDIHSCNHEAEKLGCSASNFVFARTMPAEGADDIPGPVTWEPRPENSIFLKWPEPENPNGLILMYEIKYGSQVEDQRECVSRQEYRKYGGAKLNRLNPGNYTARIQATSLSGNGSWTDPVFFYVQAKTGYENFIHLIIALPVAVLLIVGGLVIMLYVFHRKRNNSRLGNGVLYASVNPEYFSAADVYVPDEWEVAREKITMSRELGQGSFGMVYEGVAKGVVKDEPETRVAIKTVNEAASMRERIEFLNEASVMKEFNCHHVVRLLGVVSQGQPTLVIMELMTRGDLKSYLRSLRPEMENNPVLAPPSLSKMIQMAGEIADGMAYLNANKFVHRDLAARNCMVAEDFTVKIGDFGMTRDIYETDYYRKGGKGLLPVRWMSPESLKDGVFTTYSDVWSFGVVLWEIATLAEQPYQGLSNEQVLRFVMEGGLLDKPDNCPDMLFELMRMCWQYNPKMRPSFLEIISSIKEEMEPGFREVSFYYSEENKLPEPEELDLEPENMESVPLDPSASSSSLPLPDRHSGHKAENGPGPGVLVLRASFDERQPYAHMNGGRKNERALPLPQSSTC
The target of experiment [9] is NUAK family SNF1-like kinase 1 (Homo sapiens, UniProt O60285). In words: Selectivity interaction (Enzymatic assay) EUB0001199aCl NUAK1.
Chain of NUAK family SNF1-like kinase 1 (O60285 whole entry): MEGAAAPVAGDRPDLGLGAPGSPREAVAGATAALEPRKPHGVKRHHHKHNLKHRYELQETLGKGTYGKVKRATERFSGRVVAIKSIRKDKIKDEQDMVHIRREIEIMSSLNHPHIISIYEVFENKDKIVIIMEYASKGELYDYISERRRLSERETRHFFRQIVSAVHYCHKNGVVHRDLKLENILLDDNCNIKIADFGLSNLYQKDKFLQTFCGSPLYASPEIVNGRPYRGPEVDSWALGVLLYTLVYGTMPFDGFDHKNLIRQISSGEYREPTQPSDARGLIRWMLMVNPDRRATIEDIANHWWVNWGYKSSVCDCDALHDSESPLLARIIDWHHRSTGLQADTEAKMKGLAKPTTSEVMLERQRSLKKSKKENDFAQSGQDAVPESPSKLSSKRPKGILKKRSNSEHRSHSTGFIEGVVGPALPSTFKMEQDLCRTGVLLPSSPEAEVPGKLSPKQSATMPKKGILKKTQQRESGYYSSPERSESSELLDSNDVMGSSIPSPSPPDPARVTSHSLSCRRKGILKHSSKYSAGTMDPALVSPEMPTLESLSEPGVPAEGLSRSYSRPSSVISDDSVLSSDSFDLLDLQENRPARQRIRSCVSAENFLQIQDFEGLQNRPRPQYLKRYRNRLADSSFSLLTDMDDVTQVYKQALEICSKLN
The target in experiment [10] is T3, Tyrosine-protein kinase ZAP-70 (Homo sapiens) (UniProt P43403).
T3 sequence (whole entry): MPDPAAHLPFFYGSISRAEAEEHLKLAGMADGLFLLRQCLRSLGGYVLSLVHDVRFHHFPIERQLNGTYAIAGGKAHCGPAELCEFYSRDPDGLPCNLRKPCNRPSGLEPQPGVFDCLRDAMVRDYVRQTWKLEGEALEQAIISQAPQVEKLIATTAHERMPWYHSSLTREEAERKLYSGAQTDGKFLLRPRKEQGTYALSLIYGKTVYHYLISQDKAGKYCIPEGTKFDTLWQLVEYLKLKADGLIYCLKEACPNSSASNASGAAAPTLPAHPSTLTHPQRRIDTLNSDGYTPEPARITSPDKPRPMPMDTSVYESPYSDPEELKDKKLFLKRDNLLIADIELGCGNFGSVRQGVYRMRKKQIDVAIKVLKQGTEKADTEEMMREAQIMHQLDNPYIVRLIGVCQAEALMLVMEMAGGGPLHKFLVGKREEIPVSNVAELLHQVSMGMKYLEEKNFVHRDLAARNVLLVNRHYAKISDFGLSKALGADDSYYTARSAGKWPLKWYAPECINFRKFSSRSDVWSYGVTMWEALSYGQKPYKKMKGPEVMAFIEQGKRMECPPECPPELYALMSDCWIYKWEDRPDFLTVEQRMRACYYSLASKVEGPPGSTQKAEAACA
In words: Selectivity interaction (Kinase panel (literature)) EUB0001199aCl ZAP70. To be noted: at 1 µM.

A word on the IC50: it is the concentration at which inhibition is half-maximal. Higher therefore signals lower potency.

Chain of Serine/threonine-protein kinase PAK 1 (Homo sapiens) (Q13153 whole entry): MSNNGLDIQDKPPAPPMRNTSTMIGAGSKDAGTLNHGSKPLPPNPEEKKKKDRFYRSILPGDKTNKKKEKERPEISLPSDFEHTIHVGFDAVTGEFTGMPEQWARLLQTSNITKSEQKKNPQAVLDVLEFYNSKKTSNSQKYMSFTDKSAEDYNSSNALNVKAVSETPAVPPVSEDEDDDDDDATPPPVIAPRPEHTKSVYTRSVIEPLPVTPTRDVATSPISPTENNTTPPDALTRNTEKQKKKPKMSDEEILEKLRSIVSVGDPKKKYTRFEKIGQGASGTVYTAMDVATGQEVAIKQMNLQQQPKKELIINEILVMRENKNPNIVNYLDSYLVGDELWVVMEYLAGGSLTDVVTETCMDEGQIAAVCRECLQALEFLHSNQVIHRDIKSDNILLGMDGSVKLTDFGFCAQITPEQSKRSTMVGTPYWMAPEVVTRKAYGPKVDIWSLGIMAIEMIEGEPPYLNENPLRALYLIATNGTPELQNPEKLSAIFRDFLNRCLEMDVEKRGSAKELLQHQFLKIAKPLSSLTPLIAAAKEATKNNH
Chain of Serine/threonine-protein kinase N2 (Q16513 whole entry, looked up): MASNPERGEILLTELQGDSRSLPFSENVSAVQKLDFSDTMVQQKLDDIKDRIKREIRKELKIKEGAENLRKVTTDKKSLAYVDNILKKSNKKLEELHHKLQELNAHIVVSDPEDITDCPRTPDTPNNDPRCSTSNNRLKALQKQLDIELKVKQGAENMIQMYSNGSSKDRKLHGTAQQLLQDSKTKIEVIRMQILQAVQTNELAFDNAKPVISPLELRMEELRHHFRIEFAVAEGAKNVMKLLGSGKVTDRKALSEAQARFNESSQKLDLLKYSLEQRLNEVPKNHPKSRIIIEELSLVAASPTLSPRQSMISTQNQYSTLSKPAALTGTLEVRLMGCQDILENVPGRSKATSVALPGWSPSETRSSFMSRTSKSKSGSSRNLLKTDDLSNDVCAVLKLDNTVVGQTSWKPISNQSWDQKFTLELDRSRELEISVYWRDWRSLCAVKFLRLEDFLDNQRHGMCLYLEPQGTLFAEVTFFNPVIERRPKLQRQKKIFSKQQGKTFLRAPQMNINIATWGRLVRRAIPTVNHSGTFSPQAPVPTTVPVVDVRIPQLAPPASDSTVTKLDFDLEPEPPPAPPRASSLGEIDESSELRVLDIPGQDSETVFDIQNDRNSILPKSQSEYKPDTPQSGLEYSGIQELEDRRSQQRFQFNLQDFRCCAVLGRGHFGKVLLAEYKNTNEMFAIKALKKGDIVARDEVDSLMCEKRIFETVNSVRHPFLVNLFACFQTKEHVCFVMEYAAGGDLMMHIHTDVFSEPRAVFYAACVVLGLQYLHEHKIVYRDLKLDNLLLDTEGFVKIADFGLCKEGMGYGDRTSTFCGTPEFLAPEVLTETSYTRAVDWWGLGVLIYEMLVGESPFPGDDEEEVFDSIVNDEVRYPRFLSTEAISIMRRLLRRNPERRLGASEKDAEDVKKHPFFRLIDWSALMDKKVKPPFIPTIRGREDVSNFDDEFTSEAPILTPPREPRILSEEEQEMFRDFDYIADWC
Chain of Serine/threonine-protein kinase NIM1 (Q8IY84 whole entry): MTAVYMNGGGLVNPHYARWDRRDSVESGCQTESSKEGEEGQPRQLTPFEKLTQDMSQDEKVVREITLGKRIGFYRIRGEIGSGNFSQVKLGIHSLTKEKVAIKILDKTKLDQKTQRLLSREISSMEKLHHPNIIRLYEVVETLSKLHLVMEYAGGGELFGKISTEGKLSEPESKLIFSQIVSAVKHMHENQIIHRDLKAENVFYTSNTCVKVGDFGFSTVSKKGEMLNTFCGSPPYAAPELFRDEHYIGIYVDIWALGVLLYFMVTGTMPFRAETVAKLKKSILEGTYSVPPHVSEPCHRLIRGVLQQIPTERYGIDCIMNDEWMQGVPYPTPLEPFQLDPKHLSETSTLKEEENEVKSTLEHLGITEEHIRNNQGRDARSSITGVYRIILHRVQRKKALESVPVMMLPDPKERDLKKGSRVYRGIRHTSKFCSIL

Consider `CC(=O)Nc1cccc(-n2c(=O)n(C3CC3)c(=O)c3c(Nc4ccc(I)cc4F)n(C)c(=O)c(C)c32)c1`, for which, in experiment [1], the % of control turned out to be 98%. Consider `COc1cc(Nc2nc(C)cc(-c3cnn4nc(OC)ccc34)n2)cc(C(F)(F)F)c1`, for which the IC50 in experiment [2] was over 10 µM. In turn, `O=C(NOC[C@H](O)CO)c1ccc(F)c(F)c1Nc1ccc(I)cc1F` had a % of control in experiment [3] of 100%.

`CNC(=O)Nc1ccc(-c2nc(N3CC4CCC(C3)O4)c3cnn(C4CCC5(CC4)OCCO5)c3n2)cc1`: the % of inhibition in experiment [4] was -1%. The compound further gave a % of control in [5] of 100%. For the compound `CC[C@@H]1[C@H](F)C(=O)N[C@@H]1COc1nccc2cc(C(N)=O)c(OC)cc12` [ZIMLOVISERTIB], in experiment [6], the % of inhibition was -2.77%. Consider `CCc1cccc(CC)c1NC(=O)c1nn(C)c2c1CCc1cnc(Nc3ccc(C(=O)NC4CCN(C)CC4)cc3OC(F)(F)F)nc1-2`, for which, in experiment [7], the 50% inhibitory concentration (IC50) was over 10 µM.

In [8], `COCC(=O)NC/C=C/c1ccc2ncnc(Nc3ccc(Oc4ccc(C)nc4)c(C)c3)c2c1` [CP-724714] gave a % of control of 83%. In [9], `CN1Cc2nccc(-c3cn(C)nc3-c3ccc(F)cc3)c2C1=O` showed an IC50 of 10.2 µM. The % of inhibition in experiment [10] was 6%.

The values are drawn from ChEMBL document CHEMBL5465560, “Selectivity Literature for EUbOPEN Chemogenomic Library” (2024).
